Experimental data published in patent US20150274639A1, “METHODS OF USE FOR COMPOSITIONS COMPRISING A BIOCIDAL POLYAMINE” (Curza Global, LLC, priority 2013, published 2015).
In brackets after ≈: the same amount, converted by molar mass. Several values for one entry are separate records, joined by “and”; a condition that tells them apart may be missing. Equal values may be shown once.

Tests used:
[1] = tested on: MRSA biofilm; experiment: EBEC, high number biofilms on PEEK membranes (10^9 to 10^2 CFU/PEEK membrane in 24 hours); assay type: cell-based, methicillin-resistant Staphylococcus aureus; settings: for EBEC, MRSA: Table 4
Description: (§1) In addition to determining the MIC and the MBEC of polyamine compounds against planktonic bacteria and low number biofilms, our group wanted to determine the efficacy of polyamine compounds against high number biofilms. To do so, biofilms were grown on the surface of polyetheretherketone (PEEK) membranes using a membrane biofilm reactor. This reactor is similar to the CDC biofilm reactor, but rather than growing biofilms on coupon surfaces, the reactor was modified to hold PEEK membranes. In short, to grow biofilms within this system, 500 mL of brain heart infusion (BHI) broth were inoculated with 1 mL of a 0.5 McFarland. The reactor was placed on a hot plate set at 34° C. and the bacteria were grown under batch conditions for 24 hours. Following this protocol, biofilms typically grow to 10^9 CFU/PEEK membrane. […] A solution of 10% BHI was then flowed through the reactor at a rate of 6.94 mL/min for an additional 24 hours. PEEK membranes were then removed and placed into 2 mL of CAMHB that contained a desired concentration of polyamine compound or antibiotic. The EBEC was defined as the concentration of antimicrobial required to reduce a biofilm from approximately 10^9 CFU/PEEK membrane to approximately 10^2 CFU/PEEK membrane in a 24-hour period.
(§2) In addition to determining the MIC and the MBEC of compounds against planktonic bacteria and low number biofilms, the efficacy of the compounds of the invention against high number biofilms is determined. To do so, biofilms are grown on the surface of PEEK membranes using a membrane biofilm reactor (Williams, D. L., Haymond, B. S. & Bloebaum, R. D. Use of delrin plastic in a modified CDC biofilm reactor. Res J Microbiol 6, 425-429 (2011); Williams, D. L., Woodbury, K. L., Haymond, B. S., Parker, A. E. & Bloebaum, R. D. A modified CDC biofilm reactor to produce mature biofilms on the surface of PEEK membranes for an in vivo animal model application. Curr Microbiol 62, 1657-1663 (2011); Williams, D. L. et al., In Vivo Efficacy of a Silicone—Cationic Steroid Antimicrobial Coating to Prevent Implant-Related Infection. Biomaterials 33, 8641-8656 (2012); Williams, D. L. et al., Experimental model of biofilm implant-related osteomyelitis to test combination biomaterials using biofilms as initial inocula. J Biomed Mat Res A 100, 1888-1900 (2012)). This reactor is similar to the CDC biofilm reactor, but rather than growing biofilms on coupon surfaces, the reactor was modified to hold PEEK membranes. In short, to grow biofilms within this system, 500 mL of brain heart infusion (BHI) broth is inoculated with 1 mL of a 0.5 McFarland. The reactor is placed on a hot plate set at 34° C. and the bacteria grown under batch conditions for 24 hours. A solution of 10% BHI will then be flowed through the reactor at a rate of 6.94 mL/min for an additional 24 hours. Following this protocol, biofilms typically grow to 10^9 CFU/PEEK membrane. PEEK membranes is removed and placed into 2 mL of CAMHB that contain a desired concentration of the test compound. The EBEC is defined as the concentration of antimicrobial required to reduce a biofilm from approximately 10^9 CFU/PEEK membrane to approximately 10^2 CFU/PEEK membrane in a 24-hour period.
EBEC data were collected to determine the efficacy of CZ-52, CZ-58 and traditional antibiotics against high number biofilms containing approximately 10^9 CFU grown on the surface of a polyetheretherketone (PEEK) membrane.

[2] = tested on: A. baumannii; experiment: MIC in CAMHB, 96-well plate (10^5 to 10^2 CFU/mL in 24 hours); assay type: cell-based, Acinetobacter baumannii
Description: To determine the MIC of polyamine compounds, the protocol described herein was used.
In brief, a 0.5 McFarland of each bacterial isolate was made. A 0.5 McFarland is a measure of turbidity in a liquid sample that contains approximately 1×10̂^8 CFU/mL. The 0.5 McFarland standard was diluted in cation adjusted Mueller Hinton Broth (CAMHB), and […], of broth were added to a well of a 96-well plate. In addition, 50 μL of CAMHB that contained a desired concentration of antimicrobial were also added to the well for a final volume of 100 and a final concentration of approximately 5×10^4 CFU/well (which equated to approximately 5×10^5 CFU/mL). Each well contained a desired amount of polyamine compound in order to experimentally determine the MIC. Each 96-well plate was incubated at 37° C. for 24 hours. The contents of each well were plated on tryptic soy agar (TSA). TSA plates were incubated for 37° C. for 24 hours after which the number of CFU were counted and used to calculate the CFU/mL that remained after exposure to varying concentrations of compound. This procedure was repeated n=8 times for each concentration of antimicrobial.
A 0.5 McFarland of A. baumannii is made. A 0.5 McFarland is a measure of turbidity in a liquid sample that contains approximately 7.5×10^7 CFU/mL. The 0.5 McFarland standard is diluted in CAMHB and 50 μL of broth is added to a well of a 96-well plate. In addition, 50 μL of CAMHB that contains a desired concentration of antimicrobial is added to the well for a final volume of 100 μL and a final concentration of approximately 5×10^4 CFU/well (which equates to approximately 5×10^5 CFU/mL). Each well contains a desired amount of CZ compound in order to experimentally determine the MIC. Each 96-well plate is incubated at 37° C. for 24 hours. The contents of each well is plated on tryptic soy agar (TSA). TSA plates is incubated at 37° C. for 24 hours after which the number of CFUs is counted and used to calculate the CFU/mL that remain after exposure to varying concentrations of compound. This procedure is repeated n=8 times for each concentration of antimicrobial. […]

[3] = tested on: A. baumannii biofilm; experiment: EBEC, high number biofilms on PEEK membranes (10^9 to 10^2 CFU/PEEK membrane in 24 hours); assay type: cell-based, Acinetobacter baumannii; settings: for EBEC, A. baumannii: Table 4; for EBEC relative to MIC against A. baumannii: EBEC greater than the MIC by this factor
Description: as §1, §2
EBEC data were collected to determine the efficacy of CZ-52, CZ-58 and traditional antibiotics against high number biofilms containing approximately 10^9 CFU grown on the surface of a polyetheretherketone (PEEK) membrane. […] In contrast, at 250 μg/mL CZ-52 was able to reduce MRSA biofilms by greater than 7 log10 units in a 24-hour period. Although the MIC of CZ-58 was lower against MRSA compared to A. baumannii, CZ-58 had greater activity against biofilms of A. baumannii than against MRSA biofilms in the EBEC assay. […] Although the MIC of CZ-58 was “high” compared to MICs of traditional antibiotics, the efficacy against biofilms was promising.

[4] = tested on: A. baumannii biofilm; experiment: MBEC, MBEC Inoculation Tray by Innovotech (to 10^2 CFU/peg in 24 hours); assay type: cell-based, Acinetobacter baumannii; settings: Table 3B titled MICs, group head missing, values match MBEC; for MIC: Acinetobacter baumannii
[5] = tested on: A. baumannii biofilm; experiment: EBEC, high number biofilms on PEEK membranes (10^9 to 10^2 CFU/PEEK membrane in 24 hours); assay type: cell-based, Acinetobacter baumannii; settings: Table 3B titled MICs, group head missing, values match EBEC; for MIC: Acinetobacter baumannii
[6] = Acinetobacter baumannii, Table 3A
[7] = Acinetobacter baumannii, Table 4

Row | Compound | EBEC, MRSA [1] | MIC [2, 6] [µg/mL] | MIC [2, 7] | EBEC, A. baumannii [3] | MIC [4] [µg/mL] | MIC [5] [µg/mL] | reduction of MRSA biofilms ([1]; at 250 μg/mL, 24-hour period) | EBEC relative to MIC against A. baumannii [3] | activity against A. baumannii biofilms relative to MRSA biofilms ([3]; greater activity against A. baumannii biofilms) [fold] | MIC, A. baumannii ([2]; Table 3A) [µg/mL] | MIC ([2]; Table 4) [µM] | MIC, A. baumannii ([2]; Table 4) [µg/mL] | MIC, A. baumannii [4] [µg/mL] | MIC, A. baumannii [5]
1 | NCCCNCCCNCc1cccc(CNCCCNCCCN)c1 [CZ-25] | > 5,000 μg/mL and 13,715 μM | 150 | 150 µg/mL and 411 µM | ~7,500 μg/mL | 450 (≈ 1230 µM) | > 5000 |  |  |  |  |  |  |  | 
2 | NCCCNCCCNCc1cc(CNCCCNCCCN)cc(CNCCCNCCCN)c1 [CZ-52] | 250 μg/mL and 500 μM | ~25 | 400 µg/mL and 800 µM | ~7,000 μg/mL and ~14,000 μM | 300 (≈ 591 µM) | > 5000 | greater than 7 log10 units |  |  |  |  |  |  | 
3 | NCCCNCCCNCc1cc(CNCCCNCCCN)cc(-c2ccccc2)c1 [CZ-58] | 1,500 μg/mL and 3,403 μM |  | 30 µg/mL and 68 µM | 400 μg/mL and 908 μM |  |  |  | ~13 × | 10 |  |  |  |  | 
4 | Polymyxin B sulfate [reference compound] |  |  |  | 1,000 μg/mL and 722 μM |  |  |  | 1,000 × |  | 2 | 0.7 | 1 | 50 | 1,000 μg/mL
